Legend:
[1] = system: tau accumulated in the brain with AD; test: In vitro autoradiography using autopsied brain tissue of Alzheimer's disease patient; type: binding, human
Description: (Evaluation 1) In Vitro Autoradiography Using Autopsied Brain Tissue of Alzheimer's Disease Patient (1) In Vitro Autoradiography
Autopsied brain tissue sections of an Alzheimer's disease (AD) patient (sections from a frontal lobe site and a temporal lobe site, 6 μm) were used, which were provided from Graduate School of Medicine, Kyoto University and National Cerebral and Cardiovascular Center Hospital. Deparaffinization treatment was performed by washing with xylene (15 min×2), ethanol (1 min×2), a 90 vol % aqueous ethanol solution (1 min×1), an 80 vol % aqueous ethanol solution (1 min×1), a 70 vol % aqueous ethanol solution (1 min×1), and purified water (2.5 min×2). A 10 vol % aqueous ethanol solution of each radioactive iodine-labeled BIP derivative compound (370 kBq/mL) obtained by the method shown in Example 7 was added thereto, and the tissue sections were incubated at room temperature for 2 hours. The tissue sections were washed with a 50 vol % aqueous ethanol solution (1 hr×1), then exposed to an imaging plate (BAS-SR2025 manufactured by Fujifilm Corp.), and analyzed using a bioimaging analyzer (bioimaging analyzer BAS-5000 manufactured by Fujifilm Corp.). Multi Gauge manufactured by Fujifilm Corp. was used in quantitative analysis.
FIGS. 5E and 5F show the results obtained using [^125I]BIP-NMe2. FIGS. 5G and 5H show the results obtained using [^125I]BIP-OMe. FIGS. 5I and 5J show the results obtained using [^125I]BIP-Me. FIGS. 5E, 5G, and 5I show the results obtained using the brain tissue section of the frontal lobe. FIGS. 5F, 5H, and 5J show the results obtained using the brain tissue section of the temporal lobe.
Tau and Aβ were immunostained using sections adjacent to the autopsied AD brain tissue sections used in autoradiography. An anti-phosphorylated tau monoclonal antibody (AT8, manufactured by Thermo Fisher Scientific Inc.) was used as a primary antibody in the immunostaining of tau, and an anti-Aβ1-42 monoclonal antibody (BC05, manufactured by Wako Pure Chemical Industries, Ltd.) was used as a primary antibody in the immunostaining of Aβ. Deparaffinization treatment was performed by washing with xylene (15 min×2), ethanol (1 min×2), a 90 vol % aqueous ethanol solution (1 min×1), an 80 vol % aqueous ethanol solution (1 min×1), a 70 vol % aqueous ethanol solution (1 min×1), and purified water (2.5 min×2). The antigens were retrieved by autoclaving (15 min) in a 0.01 mol/L citrate buffer solution (pH 6.0) and formic acid treatment (5 min). The tissue sections were washed with running water (5 min) and then washed with PBS-Tween 20 (2 min×1). The tissue sections were reacted with primary antibody solutions at room temperature for 1 hour and then washed with PBS-Tween 20 (5 min×3). The tissue sections were reacted with Histofine Simple Stain MAX-PO (MULTI) (manufactured by Nichirei Biosciences Inc.) at room temperature for 30 minutes and then washed with PBS-Tween 20 (3 min×3) and TBS (5 min×1). Finally, the tissue sections were reacted with a DAB solution at room temperature for 1 minute. The tissue sections were washed with distilled water (1 min×1) to terminate the reaction. The brain tissue sections were mounted on slides and then observed under a microscope (BZ-9000 manufactured by Keyence Corporation).
FIGS. 5A and 5B show the results obtained using the brain tissue section of the frontal lobe. FIGS. 5C and 5D show the results obtained using the brain tissue section of the temporal lobe. FIGS. 5A and 5C show the results of immunostaining with the antibody against tau. FIGS. 5B and 5D show the results of immunostaining with the antibody against Aβ.

[2] = Evaluation of in vivo radioactivity distribution in normal mouse; conditions: normal ddY male mice, tail vein; for radioactivity distribution, Blood / radioactivity distribution, Brain / radioactivity distribution, Heart / radioactivity distribution, Intestine / radioactivity distribution, Kidney / radioactivity distribution, Liver / radioactivity distribution, Lung / radioactivity distribution, Pancreas / radioactivity distribution, Spleen / radioactivity distribution, Stomach / radioactivity distribution, Thyroid gland: mean (SD)
Description: (Evaluation 2) Evaluation of In Vivo Radioactivity Distribution in Normal Mouse
Each compound of [^125I]BIP-NMe2, [^125I]BIP-OMe, and [^125I]BIP-Me synthesized according to the method shown in Example 7 was diluted with saline containing 10 vol % ethanol and 0.1 vol % Tween 80. Each radioactive iodine-labeled BIP derivative compound was administered to a group of 5-week-old ddY male mice (26 to 28 g; each group involved 5 mice) from the tail veins thereof at 19.6 to 29.4 kBq (100 μL) per mouse. After 2, 10, 30, or 60 minutes, the mice were slaughtered. After blood collection, the organs were taken out, and their weights and radioactivity were measured.
In Tables 2 to 4, the numerical values shown in the column “Time after administration” are means of % ID for the stomach and the thyroid gland and means of % ID/g for the other tissues with standard deviation (SD) shown in parenthesis.

CN(C)c1ccn2c(c1)nc1cc([125I])ccc12 [[^125I]BIP-NMe2, 7-[^125I]iodo-3-dimethylaminopyrido[1,2-a]benzimidazole]
radioactivity accumulation in the brain tissue section of the frontal lobe ([1]; AD patient autopsied brain section, frontal lobe, 370 kBq/mL, 2 hours room temperature): none | radioactivity accumulation in the brain tissue section of the temporal lobe ([1]; AD patient autopsied brain section, temporal lobe, 370 kBq/mL, 2 hours room temperature): exhibited radioactivity accumulation in only the brain tissue section of the temporal lobe | nonspecific binding to the brain white matter ([1]; AD patient autopsied brain sections): low | visualization of tau (autoradiography compared with tau and Aβ immunostaining) ([1]; AD patient temporal lobe section, adjacent sections immunostained (AT8, BC05)): clearly visualizes tau accumulated in the brain with AD | clearance from the brain [2]: rapid clearance from the brain | transfer to the brain early after administration [2]: high transfer to the brain | radioactivity distribution, Blood ([2]; 2 min after administration): 2.91(0.75) % ID/g | radioactivity distribution, Brain ([2]; 2 min after administration): 3.98(0.32) % ID/g | radioactivity distribution, Heart ([2]; 2 min after administration): 6.38(1.09) % ID/g | radioactivity distribution, Intestine ([2]; 2 min after administration): 3.07(0.52) % ID/g | radioactivity distribution, Kidney ([2]; 2 min after administration): 14.3(1.91) % ID/g | radioactivity distribution, Liver ([2]; 2 min after administration): 9.78(2.50) % ID/g | radioactivity distribution, Lung ([2]; 2 min after administration): 8.80(1.70) % ID/g | radioactivity distribution, Pancreas ([2]; 2 min after administration): 5.66(1.03) % ID/g | radioactivity distribution, Spleen ([2]; 2 min after administration): 2.97(0.92) % ID/g | radioactivity distribution, Stomach ([2]; 2 min after administration): 1.71(0.43) % ID | radioactivity distribution, Thyroid gland ([2]; 2 min after administration): 0.05(0.03) % ID | radioactivity distribution, Blood ([2]; 10 min after administration): 1.48(0.18) % ID/g | radioactivity distribution, Brain ([2]; 10 min after administration): 1.66(0.16) % ID/g | radioactivity distribution, Heart ([2]; 10 min after administration): 2.53(0.24) % ID/g | radioactivity distribution, Intestine ([2]; 10 min after administration): 7.45(0.50) % ID/g | radioactivity distribution, Kidney ([2]; 10 min after administration): 17.0(1.70) % ID/g | radioactivity distribution, Liver ([2]; 10 min after administration): 18.1(0.53) % ID/g | radioactivity distribution, Lung ([2]; 10 min after administration): 3.59(0.43) % ID/g | radioactivity distribution, Pancreas ([2]; 10 min after administration): 4.77(0.27) % ID/g | radioactivity distribution, Spleen ([2]; 10 min after administration): 5.15(0.84) % ID/g | radioactivity distribution, Stomach ([2]; 10 min after administration): 3.30(0.49) % ID | radioactivity distribution, Thyroid gland ([2]; 10 min after administration): 0.03(0.01) % ID | radioactivity distribution, Blood ([2]; 30 min after administration): 1.18(0.26) % ID/g | radioactivity distribution, Brain ([2]; 30 min after administration): 0.38(0.03) % ID/g | radioactivity distribution, Heart ([2]; 30 min after administration): 1.00(0.15) % ID/g | radioactivity distribution, Intestine ([2]; 30 min after administration): 14.5(3.43) % ID/g | radioactivity distribution, Kidney ([2]; 30 min after administration): 7.45(1.11) % ID/g | radioactivity distribution, Liver ([2]; 30 min after administration): 12.7(1.35) % ID/g | radioactivity distribution, Lung ([2]; 30 min after administration): 1.77(0.31) % ID/g | radioactivity distribution, Pancreas ([2]; 30 min after administration): 1.51(0.19) % ID/g | radioactivity distribution, Spleen ([2]; 30 min after administration): 2.97(0.44) % ID/g | radioactivity distribution, Stomach ([2]; 30 min after administration): 6.35(1.13) % ID | radioactivity distribution, Thyroid gland ([2]; 30 min after administration): 0.02(0.01) % ID | radioactivity distribution, Blood ([2]; 60 min after administration): 0.93(0.23) % ID/g | radioactivity distribution, Brain ([2]; 60 min after administration): 0.16(0.01) % ID/g | radioactivity distribution, Heart ([2]; 60 min after administration): 0.63(0.05) % ID/g | radioactivity distribution, Intestine ([2]; 60 min after administration): 23.5(3.65) % ID/g | radioactivity distribution, Kidney ([2]; 60 min after administration): 5.45(1.90) % ID/g | radioactivity distribution, Liver ([2]; 60 min after administration): 5.82(0.91) % ID/g | radioactivity distribution, Lung ([2]; 60 min after administration): 0.99(0.07) % ID/g | radioactivity distribution, Pancreas ([2]; 60 min after administration): 0.80(0.15) % ID/g | radioactivity distribution, Spleen ([2]; 60 min after administration): 1.97(0.25) % ID/g | radioactivity distribution, Stomach ([2]; 60 min after administration): 7.59(1.39) % ID | radioactivity distribution, Thyroid gland ([2]; 60 min after administration): 0.01(0.00) % ID

Reference: patent publication US10081630B2, “Radioactive halogen-labeled pyrido [1,2-A] benzimidazole derivative compound” (KYOTO UNIVERSITY, priority 2015, dated 2018)
